In patent US20250388589A1, “TRICYCLIC HETEROCYCLIC DERIVATIVES, COMPOSITIONS AND USES THEREOF” (Danatlas Pharmaceuticals Co., Ltd., priority 2022, published 2025) one finds IC50 data, which are given here for 16 molecules.

In assay [1] the target is hPARG (C-terminal His6-tag) (Homo sapiens (Human), UniProt Q86W56). Kind of assay: PARG Enzymatic Activity Assay (HTRF). Format: biochemical. The conditions noted are these: hPARG 65 pM final, biotinylated-NAD ribosylated PARP1 8 nM final. The method, boiled down:
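Readout is time-resolved fluorescence at 620 and 665 nm after 60 min RT detection with streptavidin-Eu cryptate and anti-6HIS-XL665; IC50 by 4-parameter fit, 1% DMSO and no-enzyme controls. Reaction: 8 nM final ribosylated PARP1 substrate for 10 min RT, following 60 min RT enzyme (65 pM)–compound preincubation in Tris pH 7.4 buffer with EDTA, DTT, KCl.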
For orientation: Time-resolved FRET reads energy transfer from a long-lived donor to a nearby acceptor.

Assay [2] concerns Kuramochi cell line. Kind of assay: Cell Viability Assay (Cell Titer-Glo, 7 days). Format: cell-based. The conditions noted are these: 168 h, Kuramochi cells, 7 days incubation, read-out: PARG Cell viability (IC50). The method, boiled down:
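IC50 from a four-parameter fit of CellTiter-Glo luminescence, scaled between DMSO-treated (high) and medium-only (low) wells. Kuramochi cells (400/well, RPMI/10% FBS) exposed 7 days at 37 °C to 9 concentrations, 3-fold steps, in duplicate.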

hPARG (C-terminal His6-tag), sequence (Q86W56 whole entry): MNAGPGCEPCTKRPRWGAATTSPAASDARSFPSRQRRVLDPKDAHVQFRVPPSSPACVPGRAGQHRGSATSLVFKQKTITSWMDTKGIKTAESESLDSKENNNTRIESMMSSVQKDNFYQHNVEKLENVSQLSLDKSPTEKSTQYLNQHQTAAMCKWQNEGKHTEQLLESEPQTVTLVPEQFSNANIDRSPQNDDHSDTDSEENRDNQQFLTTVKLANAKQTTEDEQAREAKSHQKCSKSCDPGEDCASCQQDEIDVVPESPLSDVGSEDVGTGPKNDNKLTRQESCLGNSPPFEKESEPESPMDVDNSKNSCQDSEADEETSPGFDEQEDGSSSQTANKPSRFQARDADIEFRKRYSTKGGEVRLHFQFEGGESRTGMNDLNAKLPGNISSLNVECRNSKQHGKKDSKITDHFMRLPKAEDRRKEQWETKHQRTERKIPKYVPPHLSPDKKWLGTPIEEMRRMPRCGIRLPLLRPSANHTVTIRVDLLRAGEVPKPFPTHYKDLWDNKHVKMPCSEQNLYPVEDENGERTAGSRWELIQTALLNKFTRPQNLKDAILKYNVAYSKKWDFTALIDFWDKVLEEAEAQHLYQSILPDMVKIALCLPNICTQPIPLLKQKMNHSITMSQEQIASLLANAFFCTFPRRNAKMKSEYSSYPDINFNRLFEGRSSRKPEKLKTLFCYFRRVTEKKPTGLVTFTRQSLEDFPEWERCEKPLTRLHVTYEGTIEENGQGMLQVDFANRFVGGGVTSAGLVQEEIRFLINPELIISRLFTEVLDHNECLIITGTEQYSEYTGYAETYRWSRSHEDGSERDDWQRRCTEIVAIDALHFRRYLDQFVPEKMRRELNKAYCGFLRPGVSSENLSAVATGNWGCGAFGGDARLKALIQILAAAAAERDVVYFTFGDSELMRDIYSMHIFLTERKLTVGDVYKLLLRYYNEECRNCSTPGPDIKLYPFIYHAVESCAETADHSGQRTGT

In the case of `CC(C)C(=O)N1C[C@@H](C)N(c2ncnc3c2c2ccc(S(=O)(=O)NC4(C)CC4)cc2n3-c2nnc(C(F)F)s2)C[C@@H]1C` [Example 64, 9-(5-(Difluoromethyl)-1,3,4-thiadiazol-2-yl)-4-((2R,5S)-4-isobutyryl-2,5-dimethylpiperazin-1-yl)-N-(1-methylcyclopropyl)-9H-pyrimido[4,5-b]indole-7-sulfonamide], the IC50 in assay [1] and in assay [2] was less than 100 nM each time.
As for `C[C@H]1CN(c2ncnc3c2c2ccc(S(=O)(=O)NC4(C#N)CC4)cc2n3-c2nnc(C(F)F)s2)CCN1CC#N` [Example 205, (S)—N-(1-Cyanocyclopropyl)-4-(4-(cyanomethyl)-3-methylpiperazin-1-yl)-9-(5-(difluoromethyl)-1,3,4-thiadiazol-2-yl)-9H-pyrimido[4,5-b]indole-7-sulfonamide], the IC50 in assay [1] and in assay [2] was less than 100 nM throughout.
For the molecule `C[C@@H]1CN(C)[C@@H](C)CN1c1ncnc2c1c1ccc(S(=O)(=O)NC3(C#N)CC3)cc1n2-c1nnc(C(F)F)s1` [Example 193, N-(1-Cyanocyclopropyl)-9-(5-(difluoromethyl)-1,3,4-thiadiazol-2-yl)-4-((2R,5S)-2,4,5-trimethylpiperazin-1-yl)-9H-pyrimido[4,5-b]indole-7-sulfonamide], the IC50 in assay [1] and in assay [2] was less than 100 nM in each case.
Take `N#CC1(NS(=O)(=O)c2ccc3c4c(N5CCc6cc(CO)cnc6C5)ncnc4n(-c4nnc(C(F)F)s4)c3c2)CC1` [Example 181, N-(1-Cyanocyclopropyl)-9-(5-(difluoromethyl)-1,3,4-thiadiazol-2-yl)-4-(3-(hydroxymethyl)-5,8-dihydro-1,7-napthyridin-7(6H)-yl)-9H-pyrimido[4,5-b]indole-7-sulfonamide]: the figures for the 50% inhibitory concentration (IC50) in assay [1] and in assay [2] were less than 100 nM and 100 to 1000 nM, respectively.
As to `N#CC1(NS(=O)(=O)c2ccc3c4c(N5CCN(C(=O)N6CCOCC6)CC5)ncnc4n(-c4nnc(C(F)F)s4)c3c2)CC1` [Example 8, N-(1-Cyanocyclopropyl)-9-(5-(difluoromethyl)-1,3,4-thiadiazol-2-yl)-4-(4-(morpholine-4-carbonyl)piperazin-1-yl)-9H-pyrimido[4,5-b]indole-7-sulfonamide], the IC50 in assay [1] and in assay [2] was less than 100 nM in each case.
For the molecule `N#CC1(NS(=O)(=O)c2ccc3c4c(C5CCN(C(=O)C6COC6)CC5)ncnc4n(-c4nnc(C(F)F)s4)c3c2)CC1` [Example 113, N-(1-cyanocyclopropyl)-9-(5-(difluoromethyl)-1,3,4-thiadiazol-2-yl)-4-(1-(oxetane-3-carbonyl)piperidin-4-yl)-9H-pyrimido[4,5-b]indole-7-sulfonamide], the IC50 in assay [1] and in assay [2] was less than 100 nM each time.
On to `N#CC1(NS(=O)(=O)c2ccc3c4c(N5CCN(C(=O)C6(F)CCC6)CC5)ncnc4n(-c4nnc(C(F)F)s4)c3c2)CC1` [Example 68, N-(1-Cyanocyclopropyl)-9-(5-(difluoromethyl)-1,3,4-thiadiazol-2-yl)-4-(4-(1-fluorocyclobutane-1-carbonyl)piperazin-1-yl)-9H-pyrimido[4,5-b]indole-7-sulfonamide], for which the results for the concentration for half-maximal inhibition (IC50) in assay [1] and in assay [2] were less than 100 nM and 100 to 1000 nM, respectively.
On to `C[C@H]1CN(c2ncnc3c2c2ccc(S(=O)(=O)NC4(C)CC4)cc2n3-c2nnc(C(F)F)s2)CCN1C(=O)N(C)C` [Example 101, (S)-4-(9-(5-(Difluoromethyl)-1,3,4-thiadiazol-2-yl)-7-(N-(1-methylcyclopropyl)sulfamoyl)-9H-pyrimido[4,5-b]indol-4-yl)-N,N,2-trimethylpiperazine-1-carboxamide], for which the half-maximal inhibitory concentration (IC50) in assay [1] and in assay [2] was less than 100 nM each time.
Regarding `CC(C)N1CCN(c2ncnc3c2c2ccc(S(=O)(=O)NC4(C#N)CC4)cc2n3-c2nnc(C(F)F)s2)CC1=O` [Example 180, N-(1-Cyanocyclopropyl)-9-(5-(difluoromethyl)-1,3,4-thiadiazol-2-yl)-4-(4-isopropyl-3-oxopiperazin-1-yl)-9H-pyrimido[4,5-b]indole-7-sulfonamide], the IC50 in assay [1] and in assay [2] was less than 100 nM throughout.
For the molecule `C[C@H](O)C(=O)N1CCC(c2ncnc3c2c2ccc(S(=O)(=O)NC4(C#N)CC4)cc2n3-c2nnc(C(F)F)s2)CC1` [Example 106, (S)-N-(1-Cyanocyclopropyl)-9-(5-(difluoromethyl)-1,3,4-thiadiazol-2-yl)-4-(1-(2-hydroxypropanoyl)piperidin-4-yl)-9H-pyrimido[4,5-b]indole-7-sulfonamide], the 50% inhibitory concentration (IC50) in assay [1] and in assay [2] was less than 100 nM each time.
On to `CC(C)C(=O)N1C=CC(c2ncnc3c2c2cc(F)c(S(=O)(=O)NC4(C#N)CC4)cc2n3-c2nnc(C(F)F)s2)CC1` (centres unmarked) [Example 92, N-(1-Cyanocyclopropyl)-9-(5-(difluoromethyl)-1,3,4-thiadiazol-2-yl)-6-fluoro-4-(1-isobutyryl-1,2,3,4-tetrahydropyridin-4-yl)-9H-pyrimido[4,5-b]indole-7-sulfonamide], for which the IC50 in assay [1] and in assay [2] was less than 100 nM each time.
As for `CN(CCO)C(=O)N1CCC(c2ncnc3c2c2ccc(S(=O)(=O)NC4(C#N)CC4)cc2n3-c2nnc(C(F)F)s2)CC1` [Example 143, 4-(7-(N-(1-cyanocyclo-propyl)sulfamoyl)-9-(5-(difluoromethyl)-1,3,4-thiadiazol-2-yl)-9H-pyrimido[4,5-b]indol-4-yl)-N-(2-hydroxyethyl)-N-methylpiperidine-1-carboxamide], the IC50 in assay [1] was less than 100 nM; in assay [2] it was 100 to 1000 nM.
Taken in the same sequence, the figures for `C[C@@H]1CN(c2ncnc3c2c2ccc(S(=O)(=O)NC4(C#N)CC4)cc2n3-c2nnc(C(F)F)s2)C[C@H](C)N1C(=O)C1COC1` [Example 58, N-(1-Cyanocyclopropyl)-9-(5-(difluoromethyl)-1,3,4-thiadiazol-2-yl)-4-((3S,5R)-3,5-dimethyl-4-(oxetane-3-carbonyl)piperazin-1-yl)-9H-pyrimido[4,5-b]indole-7-sulfonamide] were less than 100 nM and less than 100 nM.
`COCCN1CCN(c2ncnc3c2c2ccc(S(=O)(=O)NC4(C#N)CC4)cc2n3-c2nnc(C(F)F)s2)C[C@@H]1C` [Example 178, (S)-N-(1-cyanocyclopropyl)-9-(5-(difluoromethyl)-1,3,4-thiadiazol-2-yl)-4-(4-(2-methoxyethyl)-3-methylpiperazin-1-yl)-9H-pyrimido[4,5-b]indole-7-sulfonamide]: the IC50 in assay [1] and in assay [2] was less than 100 nM throughout.
In the case of `CO[C@H]1CCN(c2ncnc3c2c2ccc(S(=O)(=O)NC4(C#N)CC4)cc2n3-c2nnc(C(F)F)s2)C[C@H]1F` [Example 173, N-(1-cyanocyclopropyl)-9-(5-(difluoromethyl)-1,3,4-thiadiazol-2-yl)-4-((3R,4S)-3-fluoro-4-methoxypiperidin-1-yl)-9H-pyrimido[4,5-b]indole-7-sulfonamide], the IC50 in assay [1] and in assay [2] was less than 100 nM each time.
In the case of `N#CC1(NS(=O)(=O)c2ccc3c4c(C5CCN(C(=O)[C@@H]6CCOC6)CC5)ncnc4n(-c4nnc(C(F)F)s4)c3c2)CC1` [Example 116, (R)-N-(1-cyanocyclopropyl)-9-(5-(difluoromethyl)-1,3,4-thiadiazol-2-yl)-4-(1-(tetrahydrofuran-3-carbonyl)piperidin-4-yl)-9H-pyrimido[4,5-b]indole-7-sulfonamide], the IC50 in assay [1] and in assay [2] was less than 100 nM in each case.

The term IC50 denotes the point on the concentration scale where inhibition reaches its midpoint.
